Columns and labels:
USP8 MIT domain [1] = assay: Proteomic peptide-phage display (ProP-PD) selection against USP8 MIT domain; format: binding, human; design: Confidence: scale not given here; conditions: for max_counts: Total NGS counts; for Confidence: calculated based on four metrics: overlapping peptides, replicated peptides, motif match, peptide counts; for Counts: fraction of NGS counts for a selection; for Promiscuity: number of baits selections where the peptide has been observed, calculated on the domain level; for Replicates: number of screens against the bait protein in which the peptide has been found; for Specificity: proportion for the current bait of the total NGS read counts of the peptide for all baits screened with this library; for NGS counts (%): ProP-PD, human disorderome library, GST-tagged MIT bait, four rounds of selection, percent of NGS counts associated with each peptide, Fig. 1B
Method: We explored the peptide-binding of the USP8 MIT domain by using the purified GST-tagged MIT domain as bait in proteomic peptide-phage display (ProP-PD) selections and a library designed to display the predicted unstructured regions of the human proteome. The peptide-coding regions of the binding-enriched phage pools were analysed by next-generation sequencing (NGS). After filtering for high confidence ligands, ten ligands remained (Fig. 1B; Supplementary Table S1). None of the ten identified protein-protein interactions had been previously reported, based on comparison with the information available in IntAct, HIPPIE and BioGrid (February 2025). Of the USP8 interacting proteins found, the D site-binding protein (DBP), which is a clock-controlled transcription factor, appears as an interesting ligand as USP8 has been reported to be involved in controlling the circadian rhythm. Also, the CCDC88A-encoded protein Girdin is an interactor of potential biological relevance as it is a scaffolding protein involved in the EGFR pathway which USP8 is known to regulate. At the motif level, there was no shared consensus motif among the ten peptide ligands. However, by manual inspection we noticed that four of the peptides contained a shared [LI]xxR[IY]xxL sequence, which appears to be a variation of the [DE]xxLxxRLxxL[KR] MIM1 motif described in the Eukaryotic Linear Motif resource (ELM) (Fig. 1B). We performed a SPOT array alanine scanning analysis in which peptides are synthesised on a membrane, and where each amino acid position of the peptide is mutated to alanine (or glycine if alanine is in the wild type peptide) to evaluate the effect of the amino acid residues in binding. We tested two peptides containing the apparent MIM1-like motif, one from Girdin (Girdin1192 − 1207) and one from the histone-lysine N-methyltransferase SETD1B (SETD1B492 − 507). […] AlphaFold3 (AF3) modelling of the four peptides with the variant MIM1 motif and the MIT domain docked the peptides with high confidence (ipTM scores: HIVEP1_741 − 756: 0.87, Girdin1192 − 1207: 0.85, MLPH481 − 496: 0.82, SETD1B492 − 507: 0.75) at the expected MIM1 binding pocket (Fig. 1D). […] However, the USP8 MIT selection was dominated (more than 94% of NGS counts) by two peptides that lack an apparent MIM1 motif. The two peptides were from the EF-hand calcium-binding domain-containing protein 12 (EFCAB12_1 − 16: […]) and from DBP (DBP116 − 131: […]) (Fig. 1B). […] In comparison to this, the EFCAB12_1 − 16 peptide shares a potential Dx[YF]xxxH[SG] motif with the DBP116 − 131 (Fig. 1B). […] The AF3 model of DBP116 − 131 peptide supports the interaction of D120 of the DBP116 − 131 peptide with the residues K74 and N71 in the MIT domain (Fig. 1G), emphasizing the significance of the aspartic acid at this position. […] Of them, two peptides (SYNE2_853 − 868 and PKNOX1_56 − 71) where placed in the same binding site as the Girdin and DBP peptides with high confidences by AF3 modelling (ipTM 0.92 and 0.74; Supplementary Fig. S3).
Four rounds of phage selections were carried out using the second generation human disorderome library or the constructed deep mutational scanning library. At least three individual replicates were used for each bait protein. 10 µg of GST-tagged proteins or GST control (diluted in PBS from the stock of proteins kept in the purification elution buffer) were immobilized in 100 µL PBS on a 96-well MaxiSorp (Nunc) plate overnight at 4 °C. The plates were incubated with blocking buffer (with 0.5% BSA in PBS) for 1 h at 4 °C followed by washing with 0.05% Tween 20 in PBS four times. The naïve phage library (10^11 CFU) was diluted in 1/5th volume PEG/NaCl (20% PEG-8000, 0.4 M NaCl) and 1X PBS, incubated on ice for 10 min and centrifuged at 10,000 [drawing 3] g for 10 min. The pellet was resuspended in the volume of PBS (100 µL/ well). […]

USP8 MIT domain [2] = assay: Peptide-phage display-based deep mutational scanning (DMS), USP8 MIT domain; format: binding, human; conditions: for DMS-derived binding motif: M13 phage, triplicate selections in biological replicates, NGS, PSSM; for hit_pair_ratio: bait USP8_MIT__P40818_1_142
How it was run: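 Four rounds of phage selection against immobilized GST-tagged bait (GST control pre-clearing) at 4 °C, using human disorderome or 16-mer deep mutational scanning library (all non-Cys substitutions), ≥3 replicates. Enriched pools sequenced by Illumina NGS; replicate-summed counts converted to averaged fractions and frequency PSSMs per wild-type peptide.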

[3] = MLPH 482-497, ratio of averaged fractions of wild-type/mutant peptide pair, larger over smaller (direction to be read from the two fractions)
[4] = sheet S3.B_ProP-PD_pairs, ratio within the wild-type/mutant pair, larger over smaller averaged fraction (direction from fraction_wt and fraction_mut)
[5] = EFCAB12 (Q6NXP0) 2-17, pair of mutant with wild-type wt_00016 (MDDDYEAYHSLFLSLL), sheet S3.B_ProP-PD_pairs

HDSLDSRIEMLLKEQR [SETD1B 496-511, Histone-lysine N-methyltransferase SETD1B peptide, overlapping]
max_counts (USP8 MIT domain [1]): 7 | Confidence (USP8 MIT domain [1]): 2 | Counts (USP8 MIT domain [1]): 0.0001221 | Promiscuity (USP8 MIT domain [1]): 1 | Replicates (USP8 MIT domain [1]): 3 | Specificity (USP8 MIT domain [1]): 1

HRRVRTEGKESSSASR [CACNA1E, Voltage-dependent R-type calcium channel subunit alpha-1E peptide 923-938]
NGS counts (%) (USP8 MIT domain [1]): 0.87% | max_counts (USP8 MIT domain [1]): 96 | Confidence (USP8 MIT domain [1]): 2 | Counts (USP8 MIT domain [1]): 0.001177 | Promiscuity (USP8 MIT domain [1]): 3 | Replicates (USP8 MIT domain [1]): 2 | Specificity (USP8 MIT domain [1]): 0.7101

MDDDYEAYHSLFLSLL [EFCAB12_1 − 16]
PSSM score, enrichment_relative_to_wt (USP8 MIT domain [2]; EFCAB12 MDDDYEAYHSLFLSLL, library USP8_DMS, days 2,3, quotient of wild type and mutant frequencies per column, highest divided by lowest): 1 | DMS-derived binding motif (USP8 MIT domain [2]): [DE]Fx{2,3}R[FY]xxLL | NGS counts (%) (USP8 MIT domain [1]): 78.22% | max_counts (USP8 MIT domain [1]): 3851 | Confidence (USP8 MIT domain [1]): 3 | Counts (USP8 MIT domain [1]): 0.08013 | Promiscuity (USP8 MIT domain [1]): 6 | Replicates (USP8 MIT domain [1]): 6 | Specificity (USP8 MIT domain [1]): 0.9605

QAIYRHPLFPLLALLF [PKNOX1_56 − 71, Homeobox protein PKNOX1 peptide]
NGS counts (%) (USP8 MIT domain [1]): 0.95% | max_counts (USP8 MIT domain [1]): 107 | Confidence (USP8 MIT domain [1]): 2 | Counts (USP8 MIT domain [1]): 0.001294 | Promiscuity (USP8 MIT domain [1]): 21 | Replicates (USP8 MIT domain [1]): 1 | Specificity (USP8 MIT domain [1]): 0.5

SEVSDIESRIAALRAA [MLPH481 − 496, melanophilin peptide]
DMS-derived binding motif (USP8 MIT domain [2]): [DE]Fx{2,3}R[FY]xxLL | NGS counts (%) (USP8 MIT domain [1]): 0.52% | max_counts (USP8 MIT domain [1]): 33 | Confidence (USP8 MIT domain [1]): 3 | Counts (USP8 MIT domain [1]): 0.000511 | Promiscuity (USP8 MIT domain [1]): 2 | Replicates (USP8 MIT domain [1]): 3 | Specificity (USP8 MIT domain [1]): 0.9365

SEVSDIESRIALLRAA
hit_pair_ratio (USP8 MIT domain [2]; [3]): 1.95

SEVSDIESRIAMLRAA
hit_pair_ratio (USP8 MIT domain [2]; [3]): 1.77

SEVSDIESRIAVLRAA
hit_pair_ratio (USP8 MIT domain [2]; [3]): 2.60

SEVSDIESRIDALRAA
hit_pair_ratio (USP8 MIT domain [2]; [3]): 7.79

SEVSDIESRIEALRAA
hit_pair_ratio (USP8 MIT domain [2]; [3]): 2.26

SEVSDIESRIKALRAA
hit_pair_ratio (USP8 MIT domain [2]; [3]): 3.89

SEVSDIESRIMALRAA
hit_pair_ratio (USP8 MIT domain [2]; [3]): 6.39

SEVSDIESRINALRAA
hit_pair_ratio (USP8 MIT domain [2]; [3]): 7.79

SEVSDIESRISALRAA
hit_pair_ratio (USP8 MIT domain [2]; [3]): 1.49

SEVSDIESRKAALRAA
hit_pair_ratio (USP8 MIT domain [2]; [3]): 7.79

SEVSDIESRQAALRAA
hit_pair_ratio (USP8 MIT domain [2]; [3]): 2.60

SEVSDIKSRIAALRAA
hit_pair_ratio (USP8 MIT domain [2]; [3]): 3.89

SEVSDISSRIAALRAA
hit_pair_ratio (USP8 MIT domain [2]; [3]): 1.56

SEVSDITSRIAALRAA
hit_pair_ratio (USP8 MIT domain [2]; [3]): 1.11

SEVSDRESRIAALRAA
hit_pair_ratio (USP8 MIT domain [2]; [3]): 2.60

SEVSDTESRIAALRAA
hit_pair_ratio (USP8 MIT domain [2]; [3]): 3.89

SEVSDVESRIAALRAA
hit_pair_ratio (USP8 MIT domain [2]; [3]): 7.79

SEVSDYESRIAALRAA
hit_pair_ratio (USP8 MIT domain [2]; [3]): 2.23

SEVSEIESRIAALRAA
hit_pair_ratio (USP8 MIT domain [2]; [3]): 1.80

SEVSHIESRIAALRAA
hit_pair_ratio (USP8 MIT domain [2]; [3]): 7.79

SEVSNIESRIAALRAA
hit_pair_ratio (USP8 MIT domain [2]; [3]): 3.89

SEVSYIESRIAALRAA
hit_pair_ratio (USP8 MIT domain [2]; [3]): 7.79

SEVVDIESRIAALRAA
hit_pair_ratio (USP8 MIT domain [2]; [3]): 12.32

SEVWDIESRIAALRAA
hit_pair_ratio (USP8 MIT domain [2]; [3]): 1.49

SEVYDIESRIAALRAA
hit_pair_ratio (USP8 MIT domain [2]; [3]): 346.56

SEWSDIESRIAALRAA
hit_pair_ratio (USP8 MIT domain [2]; [3]): 1.11

SEYSDIESRIAALRAA
hit_pair_ratio (USP8 MIT domain [2]; [3]): 1.74

SHVSDIESRIAALRAA
hit_pair_ratio (USP8 MIT domain [2]; [4]): 1.51

SKVSDIESRIAALRAA
hit_pair_ratio (USP8 MIT domain [2]; [4]): 3.89

SLVSDIESRIAALRAA
hit_pair_ratio (USP8 MIT domain [2]; [4]): 1.11

SMVSDIESRIAALRAA
hit_pair_ratio (USP8 MIT domain [2]; [4]): 7.79

SNVSDIESRIAALRAA
hit_pair_ratio (USP8 MIT domain [2]; [4]): 1.35

SPVSDIESRIAALRAA
hit_pair_ratio (USP8 MIT domain [2]; [4]): 1.56

SQVSDIESRIAALRAA
hit_pair_ratio (USP8 MIT domain [2]; [4]): 1.00

SRVSDIESRIAALRAA
hit_pair_ratio (USP8 MIT domain [2]; [4]): 3.31

SSVSDIESRIAALRAA
hit_pair_ratio (USP8 MIT domain [2]; [4]): 24.28

SVVSDIESRIAALRAA
hit_pair_ratio (USP8 MIT domain [2]; [4]): 2.60

SYVSDIESRIAALRAA
hit_pair_ratio (USP8 MIT domain [2]; [4]): 1.00

TDDDYEAYHSLFLSLL [mut_04335]
hit_pair_ratio (USP8 MIT domain [2]; [5]): 30.76

TEVSDIESRIAALRAA
hit_pair_ratio (USP8 MIT domain [2]; [4]): 6.74

TKTLEERISKLISDNE [HIVEP1_741 − 756, Zinc finger protein 40 peptide]
NGS counts (%) (USP8 MIT domain [1]): 0.21% | max_counts (USP8 MIT domain [1]): 19 | Confidence (USP8 MIT domain [1]): 2 | Counts (USP8 MIT domain [1]): 0.001178 | Promiscuity (USP8 MIT domain [1]): 1 | Replicates (USP8 MIT domain [1]): 2 | Specificity (USP8 MIT domain [1]): 1

VDDDYEAYHSLFLSLL [mut_04336]
hit_pair_ratio (USP8 MIT domain [2]; [5]): 42.24

VEVSDIESRIAALRAA
hit_pair_ratio (USP8 MIT domain [2]; [4]): 3.36

VLSKRKGGNVGKSKRD [ERVK-21, Endogenous retrovirus group K member 21 Env polyprotein peptide 676-691]
NGS counts (%) (USP8 MIT domain [1]): 0.16% | max_counts (USP8 MIT domain [1]): 18 | Confidence (USP8 MIT domain [1]): 2 | Counts (USP8 MIT domain [1]): 0.000837 | Promiscuity (USP8 MIT domain [1]): 4 | Replicates (USP8 MIT domain [1]): 1 | Specificity (USP8 MIT domain [1]): 0.5806

WDDDYEAYHSLFLSLL [mut_04337]
hit_pair_ratio (USP8 MIT domain [2]; [5]): 1.74

WEVSDIESRIAALRAA
hit_pair_ratio (USP8 MIT domain [2]; [4]): 13.49

YDDDYEAYHSLFLSLL [mut_04338]
hit_pair_ratio (USP8 MIT domain [2]; [5]): 1.04

YEVSDIESRIAALRAA
hit_pair_ratio (USP8 MIT domain [2]; [4]): 4.18
